Here are results for 13 molecules from patent publication US20110021531A1, “OXAZOLE DERIVATIVES USEFUL AS INHIBITORS OF FAAH” (priority 2009, published 2011).

A word on the IC50: it is the concentration at which inhibition is half-maximal. Low readings indicate higher potency, high ones lower potency.

For assay [1], the target named is T1, human FAAH (Fatty Acid Amide Hydrolase) (Homo sapiens, UniProt O00519).
T1 construct: The full length FAAH was subcloned into the mammalian expression vector, pcDEF.neo
T1 sequence (O00519 1-579): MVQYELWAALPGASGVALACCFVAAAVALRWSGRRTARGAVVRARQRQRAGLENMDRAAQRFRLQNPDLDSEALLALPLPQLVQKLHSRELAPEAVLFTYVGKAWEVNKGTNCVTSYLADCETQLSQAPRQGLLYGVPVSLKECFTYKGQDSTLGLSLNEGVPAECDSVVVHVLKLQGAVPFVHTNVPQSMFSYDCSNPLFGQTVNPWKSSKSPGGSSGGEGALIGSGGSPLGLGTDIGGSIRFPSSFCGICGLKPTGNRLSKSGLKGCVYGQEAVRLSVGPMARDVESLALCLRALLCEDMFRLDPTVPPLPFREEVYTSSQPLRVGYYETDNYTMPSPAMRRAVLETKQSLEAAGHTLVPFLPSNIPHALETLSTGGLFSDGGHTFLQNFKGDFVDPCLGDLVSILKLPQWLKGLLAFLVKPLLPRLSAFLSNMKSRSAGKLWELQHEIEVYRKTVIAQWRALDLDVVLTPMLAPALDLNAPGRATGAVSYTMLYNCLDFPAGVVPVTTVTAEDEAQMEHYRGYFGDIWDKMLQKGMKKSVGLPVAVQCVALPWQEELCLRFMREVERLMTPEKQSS
Kind of assay: FAAH enzyme assay on lysate of CHO cells expressing human FAAH. Type of assay: biochemical. The text has this: (§1) To assist in assay development stable cell lines for human, murine and rat full length FAAH were developed. Human FAAH cDNA (Accession No: NM_001441.1) was purchased from Origene (Rockville, Md.). The full length FAAH was subcloned into the mammalian expression vector, pcDEF.neo, using XbaI and EcoRI restriction sites and used for stable cell line generation.
CHO cells expressing FAAH were used to prepare either crude cell lysate or microsome fractions. To harvest cells, tissue culture media was decanted, the monolayer washed three times with Ca^++Mg^++ free PBS and cells recovered after […] in enzyme free dissociation media (Millipore Corp, Billerica, Mass.). Cells were collected by centrifuging at 2000 rpm for 15 min. and the cell pellet re-suspended with 50 mM HEPES (pH 7.4) containing 1 mM EDTA and the protease inhibitors aprotinin (1 mg/ml) and leupeptin (100 μM). The suspension was sonicated at 4° C. and the cell lysate recovered after centrifuging at 12,000×g (14,600 rpm, SS34 rotor) for 20 min at 4° C. to form a crude pellet of cell debris, nuclei, peroxisomes, lysosomes, and mitochondria; the supernatant or cell lysate was used for FAAH enzyme assay. In some cases, microsomes fractions enriched in FAAH were prepared by centrifuging the cell lysate further at 27,000 rpm (100,000×g) in SW28 rotor for 50 minutes at 4° C. The pellet containing FAAH-enriched microsomes was re-suspend in 50 mM HEPES, (pH 7.4) 1 mM EDTA, and any remaining DNA sheared by passage of material through a 23 gauge needle and aliquots of enzyme were store at −80° C. prior to use.
(§2) (American Radiolabeled Chemicals; 1 mCi/ml) with FAAH (Life Sciences (1995), 56, 1999-2005 and Journal of Pharmacology and Experimented Therapeutics (1997), 283, 729-734), Analytical. Biochemistry (2003), 318, 270-5. In addition, routine assays were performed monitoring hydrolysis of arachidonyl-7-amino-4-methylcoumarin amide (AAMCA) by following increase in fluorescence upon release of 7-amino 4-methyl coumarin (λEX=355 nm, (λEM=460 nm). Analytical. Biochemistry (2005). 343, 143-51
(§3) Assays are performed on either cell lysate or microsome fractions prepared as described or in whole cell format employing either the fluorescent substrate AAMCA (Cayman chemical, Ann Arbor, Mich.,) or ^3H-anandmaide ([ETHANOLAMINE-1-3H]American Radiolabeled Chemicals; 1 mCi/ml). The cell lysate or microsome assay is performed in Costar black wall, clear bottom plates by adding FAAH_CF10 (whole cell, cell lysate or microsome) in assay buffer (50 mM Phosphate, pH 8.0, 1 mM EDTA, 200 mM KCl, 0.2% glycerol, 0.1% fatty acid free BSA) to each well, followed by either DMSO or compound and allowed to incubate at 22-25° C. for fifteen minutes. AAMCA substrate was used to achieve a final concentration of 1 μM and reaction allowed to proceed at room temperature for 1-3 hours. Fluorescent release as a measure of FAAH activity was monitored by reading the plate in a CytoFluor Multiplate Reader (Ex: […]). Whole cell assay is conducted with cells harvested after rinsing tissue culture flasks three times with Ca^++Mg^++ free PBS, incubating for 10 min in Enzyme free dissociation media and centrifuging for 5 minutes at 1,000 rpm in table top centrifuge. Cells are resuspended in assay buffer at desired cell number in (4×10^4 cells/assay in 96-well format; 1×10^4 cells/assay in 384-well format) and assayed as described.
Alternatively, assays are performed using anandamide [ethanolamine 1-^3H] (specific activity of 10 Ci/mmol) diluted with cold anandamide to achieve a final assay concentration of 1 μM anandamide (˜50,000 cpm). Enzyme (CHO cell lysate, brain or liver homogenate) is incubated in assay buffer (50 mM Phosphate, pH 8.0, 1 mM EDTA, 200 mM KCl, 0.2% glycerol, 0.1% fatty acid free BSA) with inhibitor at 25° C. for 30 minutes. The reaction was terminated by addition of 2 volumes of chloroform:methanol (1:1) and mixed by vortexing. […]

For assay [2], the target named is T2, rat FAAH (Fatty Acid Amide Hydrolase) (Rattus norvegicus, UniProt P97612).
T2 sequence (P97612 1-579): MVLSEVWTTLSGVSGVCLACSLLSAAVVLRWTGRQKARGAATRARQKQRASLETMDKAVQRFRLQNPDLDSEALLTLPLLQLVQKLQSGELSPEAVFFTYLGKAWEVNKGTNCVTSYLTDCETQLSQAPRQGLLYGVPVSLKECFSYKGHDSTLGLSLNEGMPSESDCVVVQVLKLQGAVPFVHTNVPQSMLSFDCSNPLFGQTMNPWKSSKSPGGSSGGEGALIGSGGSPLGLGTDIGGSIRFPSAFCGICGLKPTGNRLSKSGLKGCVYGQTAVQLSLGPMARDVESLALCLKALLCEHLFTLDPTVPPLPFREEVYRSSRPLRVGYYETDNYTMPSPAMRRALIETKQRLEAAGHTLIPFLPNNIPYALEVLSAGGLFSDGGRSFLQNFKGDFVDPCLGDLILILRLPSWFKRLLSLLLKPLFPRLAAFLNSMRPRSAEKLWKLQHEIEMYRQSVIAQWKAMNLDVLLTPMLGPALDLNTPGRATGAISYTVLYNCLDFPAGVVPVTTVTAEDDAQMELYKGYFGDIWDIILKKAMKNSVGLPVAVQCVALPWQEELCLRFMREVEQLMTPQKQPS
Kind of assay: FAAH whole cell assay, CHO cells expressing rat FAAH. Type of assay: cell-based.
Description: as §1
(§4) Murine (accession number NM_010173) and Rat FAAH (accession number NM_024132) was amplified by reverse transcriptase polymerase chain reaction (RT-PCR) from brain cDNA (BD Biosciences, San Jose, Calif.) using primers 1 and 2 or primers 1 and 3 respectively (see Table). The resulting PCR product was ligated into pCR4 TOPO and DNA sequence confirmed. The full length murine FAAH was subcloned into the mammalian expression vector, pcDEFneo using either EcoRI (murine) or KpnI and EcoRI (rat) restriction sites. Chinese hamster ovary cells (CHO) were transfected following manufacturers protocol (AMAXA). Forty eight hours post transfection, cells were trypsinized and transferred to 96 well plates in Iscove's DMEM media supplemented with 2 mM Glutamine, 10% fetal calf serum, 1 mg/ml geneticin and HT Supplement (0.1 mM sodium hypoxanthine, 0.016 mM thymidine) in order to isolate single clones. Following selection in geneticin, individual clones were selected and FAAH activity was assessed using a whole cell fluorescent anandamide assay, modified from Ramarao et al (2005). Following removal of tissue culture media cells were dislodged following addition of Cellstripper (Mediatech, Inc. Manassas, Va.) and transferred to 96 well black clear bottom assay plate, centrifuged at 1,000 rpm for 3 mins and media removed and replaced with assay buffer (50 mM Iris pH8.0, 1 mM EDTA, 0.1% fatty acid free BSA). The reaction was initiated by addition of fluorescent substrate, AMC Arachidonoyl Amide (Cayman Chemical, Ann Arbor, Mich.) to 1 μM and reaction allowed to proceed for 2 hours at room temperature. Release of fluorescence was monitored in a CytoFluor Multiplate Reader. Cells expressing the highest amount of FAAH activity were selected for study with FAAH inhibitors.
as §2, §3

The target in assay [3] is T1, human FAAH (Fatty Acid Amide Hydrolase). Kind of assay: FAAH whole cell assay, CHO cells expressing human FAAH. The format is cell-based.
Description: as §1, §4, §2, §3

Each structure is given as a SMILES string.

With `CS(=O)(=O)c1ccc(-c2nc(-c3ccc(F)cc3)oc2Sc2ncc(Cl)cn2)cn1` [Ex 107, 5-Chloro-2-({2-(4-fluorophenyl)-4-[6-(methylsulfonyl)pyridin-3-yl]-1,3-oxazol-5-yl}sulfanyl)pyrimidine], the IC50 came out at 24 nM in assay [1], 11 nM in assay [2] and 91 nM in assay [3].
The matching figures for `CC(C)(O)c1ccc(-c2nc(-c3ccc(F)cc3)oc2Sc2ccc(Cl)cn2)cc1` [Ex 80, 2-(4-{5-[(5-Chloropyridin-2-yl)sulfanyl]-2-(4-fluorophenyl)-1,3-oxazol-4-yl}phenyl)propan-2-ol]: 35 nM, 25 nM and 67 nM.
Take `CC(C)(O)c1ccc(-c2nc(C3CC3)oc2Sc2ccc(Cl)cn2)cn1` [Ex 90, 2-(5-{5-[(5-Chloropyridin-2-yl)sulfanyl]-2-cyclopropyl-1,3-oxazol-4-yl}pyridin-2-yl)propan-2-ol]: the IC50 in assay [1] is 46 nM; in assay [2], 247 nM; in assay [3] it was 1000 nM.
On the same counts, the results for `Fc1ccc(-c2nc(-c3ccc(-c4ncon4)nc3)c(Sc3ccc(Cl)cn3)o2)cc1` [Ex 71, 5-Chloro-2-({2-(4-fluorophenyl)-4-[6-(1,2,4-oxadiazol-3-yl)pyridin-3-yl]-1,3-oxazol-5-yl}sulfanyl)pyridine] are 10 nM, 14 nM and 30 nM.
The matching figures for `CC(C)(O)c1csc(-c2nc(-c3ccc(F)cc3)oc2Sc2ccc(Cl)cn2)n1` [Ex 100, 2-(2-{5-[(5-Chloropyridin-2-yl)sulfanyl]-2-(4-fluorophenyl)-1,3-oxazol-4-yl}-1,3-thiazol-4-yl)propan-2-ol]: 161 nM, 39 nM and 337 nM.
As for `CC(C)(O)c1ccc(-c2nc(-c3ccc(F)cc3)oc2Sc2ccc(Cl)cc2)nc1` [Ex 46], the IC50 in assay [1] was 17 nM; in assay [2] it was 10 nM; in assay [3], 39 nM.
On the same counts, the results for `Fc1ccc(-c2nc(-c3ccc(-c4ncon4)cc3)c(Sc3ccc(Cl)cc3)o2)cc1` [Ex 48, 3-{4-[5-[(4-Chlorophenyl)thio]-2-(4-fluorophenyl)-1,3-oxazol-4-yl]phenyl}-1,2,4-oxadiazole] are 9 nM, 8 nM and 77 nM.
The matching figures for `CC(C)(O)c1cnc(-c2nc(-c3ccc(F)cc3)oc2Sc2ccc(Cl)cn2)cn1` [Ex 3, 2-{5-[5-[(5-Chloropyridin-2-yl)thio]-2-(4-fluorophenyl)-1,3-oxazol-4-yl]pyrazin-2-yl}propan-2-ol]: 23 nM, 44 nM and 71 nM.
The matching figures for `COC(=O)c1cnc(-c2nc(-c3ccc(F)cc3)oc2Sc2ccc(Cl)cn2)nc1` [Ex 124, Methyl 2-{5-[(5-chloropyridin-2-yl)sulfanyl]-2-(4-fluorophenyl)-1,3-oxazol-4-yl}pyrimidine-5-carboxylate]: 11 nM, 16 nM and 98 nM.
Turning to `CC(C)(O)c1ccc(-c2nc(-c3ccc(F)c(F)c3)oc2Sc2ccc(Cl)cn2)cn1` [Ex 35], the values for the IC50 in assay [1], in assay [2] and in assay [3] were 27 nM, 21 nM and 37 nM, respectively.
On to `CC(C)(O)c1cc(-c2nc(-c3ccc(F)cc3)oc2Sc2ccc(Cl)cn2)on1` [Ex 98, 2-(5-{5-[(5-Chloropyridin-2-yl)sulfanyl]-2-(4-fluorophenyl)-1,3-oxazol-4-yl}isoxazol-3-yl)propan-2-ol], for which the IC50 in assay [1] was 44 nM; in assay [2] it was 35 nM; in assay [3], 222 nM.
The matching figures for `CC(C)(O)c1ccc(-c2nc(-c3cncc(Cl)c3)oc2Sc2ccc(Cl)cn2)cn1` [Ex 119, 2-(5-{2-(5-Chloropyridin-3-yl)-5-[(5-chloropyridin-2-yl)sulfanyl]-1,3-oxazol-4-yl}pyridin-2-yl)propan-2-ol]: 28 nM, 20 nM and 47 nM.
The matching figures for `CC(C)(O)c1ccc(-c2nc(-c3ccc(F)cc3)oc2Sc2ccc(F)cn2)cn1` [Ex 19]: 38 nM, 18 nM and 78 nM.
